Experimental findings from US20250326713A1, “INHIBITORS OF MsbA AS ANTIBIOTICS, PHARMACEUTICAL COMPOSITIONS, AND USES THEREOF” (priority 2022, published 2025) are described below.

This assay deals with various strains of bacteria. Nature of the assay: Antimicrobial potency: bacterial growth inhibition by OD600 (Antibacterial assay 1, MITC95). It is filed as cell-based, A. baumannii. The settings on record: lowest concentration giving >95% growth inhibition, CAMHB, 18-22 h. How it is done: The concentrations of compounds required to inhibit the growth of various strains of bacteria were determined in an assay that assessed bacterial growth by measuring optical density at 600 nm (OD600). Test articles were dissolved in 100% DMSO and serially diluted two-fold from their maximal concentration in 100% DMSO. Forty-nine μl of bacterial inoculum (at approx. 2×10^5 cfu/mL in CAMHB) were put into wells of an assay plate. One μl of compound or DMSO was transferred from the source plate to the assay plate. The completed assay plates were then incubated at 35+2degC for 18-22 h. Bacterial growth was measured by reading OD600 on a spectrophotometer. Data analysis calculates the lowest concentration of compound which results in >95% growth inhibition (minimum inhibitory threshold concentration 95%, MITC95).

In general, MIC refers to the lowest concentration found to suppress growth.

In brackets after ≈: the same amount, converted by molar mass.

The compound `O=C(O)c1cc(CN2CC(Oc3ccc(NS(=O)(=O)CCc4ccc(F)cc4)c(C(=O)O)c3)C2)ccc1NS(=O)(=O)CCc1ccc(F)cc1` [Compound 78, 5-((1-(3-carboxy-4-((2-(4-fluorophenyl)ethyl)sulfonamido)benzyl)azetidin-3-yl)oxy)-2-((2-(4-fluorophenyl)ethyl)sulfonamido)benzoic acid] came in with a minimal inhibitory concentration (MIC) (Acinetobacter baumannii, 20 h) of 0.782 µM (≈ 0.571 µg/mL).
`O=C(O)c1cc(NCC2CC(NCc3ccc(NS(=O)(=O)c4cnc(-c5ccc(Cl)cc5)s4)c(C(=O)O)c3)C2)ccc1NS(=O)(=O)c1cnn(-c2ccc(F)cc2)c1` (centres unmarked) [Compound 26] yielded a minimal inhibitory concentration (MIC) (Acinetobacter baumannii, 20 h) of 0.0489 µM (≈ 0.0424 µg/mL). Compared with the last compound, the MIC is about 16-fold lower.
Still for that read-out and setting: the figure for `CS(=O)(=O)NC(=O)c1cc(OC2CN(Cc3ccc(NS(=O)(=O)c4cnn(-c5ccc(F)cc5)c4)c(C(=O)O)c3)C2)ccc1NS(=O)(=O)c1cnn(-c2ccc(F)cc2)c1` [Compound 52, 2-((1-(4-fluorophenyl)-1H-pyrazole)-4-sulfonamido)-5-((3-(4-((1-(4-fluorophenyl)-1H-pyrazole)-4-sulfonamido)-3-((methylsulfonyl)carbamoyl)phenoxy)azetidin-1-yl)methyl)benzoic acid] is 0.553 µM (≈ 0.488 µg/mL).
In the case of `O=C(CCCc1ccccc1)Nc1ccc(OC2CN(Cc3ccc(NS(=O)(=O)c4cnn(-c5ccc(Cl)cc5)c4)c(C(=O)O)c3)C2)cc1C(=O)O` [Compound 72], the MIC (Acinetobacter baumannii, 20 h) worked out at 0.0978 µM (≈ 0.0728 µg/mL).
In the case of `O=C(O)c1cc(CNC2CC(COc3ccc(NS(=O)(=O)c4cnn(-c5ccc(Cl)cc5)c4)c(C(=O)O)c3)C2)ccc1NS(=O)(=O)c1cnn(-c2ccc(Cl)cc2)c1` (centres unmarked) [Compound 87, 5-(((1s, 3s)-3-((3-carboxy-4-((1-(4-chlorophenyl)-1H-pyrazole)-4-sulfonamido)benzyl)amino)cyclobutyl)methoxy)-2-((1-(4-chlorophenyl)-1H-pyrazole)-4-sulfonamido)benzoic acid], the MIC was 0.0245 µM (≈ 0.0212 µg/mL).
For the compound `O=C(CCc1ccc(Cl)c(Cl)c1)Nc1ccc(OC2CN(Cc3ccc(NS(=O)(=O)c4cnn(-c5ccc(Cl)cc5)c4)c(C(=O)O)c3)C2)cc1C(=O)O` [Compound 71], the minimum inhibitory concentration (MIC) (Acinetobacter baumannii, 20 h) was found to be 0.0978 µM (≈ 0.0782 µg/mL). This counts as double-digit nanomolar.
Turning to `O=C(NCc1ccccc1)C(=O)Nc1ccc(OC2CN(Cc3ccc(NS(=O)(=O)c4ccc(-c5ccc(Cl)cc5)cc4)c(C(=O)O)c3)C2)cc1C(=O)O` [Compound 62], the MIC (Acinetobacter baumannii, 20 h) was less than 0.0488 µM.
Still for that read-out and setting: the same measure for `CCCCc1ccc(S(=O)(=O)Nc2ccc(CN3CC(Oc4ccc(NS(=O)(=O)c5ccc(-c6ccc(F)cc6)cc5)c(C(=O)O)c4)C3)cc2C(=O)O)cc1` [Compound 108]: 0.0489 µM (≈ 0.0385 µg/mL); for `O=C(O)c1cc(CNC2CC(CNc3ccc(NS(=O)(=O)c4cnn(-c5ccc(Cl)cc5)c4)c(C(=O)O)c3)C2)ccc1NS(=O)(=O)c1cnn(-c2ccc(Cl)cc2)c1` (centres unmarked) [Compound 32]: 0.0245 µM (≈ 0.0212 µg/mL).
As to `O=C(O)c1cc(COC2CC(OCc3ccc(NS(=O)(=O)c4ccc(-c5ccc(Cl)cc5)cc4)c(C(=O)O)c3)C2)ccc1NS(=O)(=O)CCc1ccc(Cl)cc1` (centres unmarked) [Compound 17], the MIC (Acinetobacter baumannii, 20 h) was less than 0.0488 µM.
Same read-out and setting: the figure for `O=C(CCc1ccc(Cl)cc1)Nc1ccc(OC2CN(Cc3ccc(NS(=O)(=O)c4cnn(-c5ccc(Cl)cc5)c4)c(C(=O)O)c3)C2)cc1C(=O)O` [Compound 65, 5-((1-(3-carboxy-4-((1-(4-chlorophenyl)-1H-pyrazole)-4-sulfonamido)-benzyl)azetidin-3-yl)oxy)-2-(3-(4-chlorophenyl)propanamido)benzoic acid] is 0.0489 µM (≈ 0.0374 µg/mL); for `O=C(O)c1cc(CN2CC(Oc3ccc(NS(=O)(=O)c4cnn(-c5ccc(F)cc5)c4)c(C(=O)O)c3)C2)ccc1NS(=O)(=O)c1cnn(-c2ccc(F)cc2)c1` [Compound 115, 5-((1-(3-carboxy-4-(1-(4-fluorophenyl)-1H-pyrazole-4-sulfonamido)benzyl)azetidin-3-yl)oxy)-2-(1-(4-fluorophenyl)-1H-pyrazole-4-sulfonamido)benzoic acid] it is 0.277 µM (≈ 0.223 µg/mL); for `O=C(NCc1ccc(Cl)cc1)C(=O)Nc1ccc(OC2CN(Cc3ccc(NS(=O)(=O)c4cnn(-c5ccc(Cl)cc5)c4)c(C(=O)O)c3)C2)cc1C(=O)O` [Compound 58] it is 0.0245 µM (≈ 0.0194 µg/mL).
Under “Acinetobacter baumannii, 20 h”, `O=C(O)c1cc(CN2CC(Oc3ccc(NS(=O)(=O)c4cnn(-c5ccc(Cl)cn5)c4)c(C(=O)O)c3)C2)ccc1NS(=O)(=O)c1cnn(-c2ccc(Cl)cn2)c1` [Compound 121] gave an MIC of 0.277 µM (≈ 0.233 µg/mL).
The compound `O=C(O)c1cc(CN2CC(Oc3ccc(NS(=O)(=O)c4cnc(-c5ccc(F)cc5)o4)c(C(=O)O)c3)C2)ccc1NS(=O)(=O)c1cnc(-c2ccc(F)cc2)o1` [Compound 120] displayed an MIC (Acinetobacter baumannii, 20 h) of 0.0489 µM (≈ 0.0395 µg/mL).
Under “Acinetobacter baumannii, 20 h”, `O=C(O)c1cc(CN2CC(Oc3ccc(NS(=O)(=O)c4ccc(-c5ccc(Cl)cc5)cc4)c(C(=O)O)c3)C2)ccc1NS(=O)(=O)c1cnn(-c2ccc(F)cc2)c1` [Compound 104] gave a minimum inhibitory concentration (MIC) of 0.0346 µM (≈ 0.0288 µg/mL).
Still for that read-out and setting: the same measure for `O=C(O)c1cc(OC[C@H]2C[C@H](Oc3ccc(NS(=O)(=O)c4cnn(-c5ccc(Cl)cc5)c4)c(C(=O)O)c3)CN2)ccc1NS(=O)(=O)c1cnn(-c2ccc(Cl)cc2)c1` [Compound 24, trans-5-((5-((3-carboxy-4-((1-(4-chlorophenyl)-1H-pyrazole)-4-sulfonamido)-phenoxy)methyl)pyrrolidin-3-yl)oxy)-2-((1-(4-chlorophenyl)-1H-pyrazole)-4-sulfonamido)benzoic acid]: 0.277 µM (≈ 0.241 µg/mL); for `O=C(O)c1cc(OC2CN(Cc3ccc(NS(=O)(=O)c4ccc(-c5ccccc5)s4)c(C(=O)O)c3)C2)ccc1NS(=O)(=O)CCc1ccc(F)cc1` [Compound 86]: 0.0245 µM (≈ 0.0188 µg/mL).
Still for that read-out and setting: the figure for `Cn1nc(-c2ccc(F)cc2)cc1S(=O)(=O)Nc1ccc(CN[C@H]2C[C@@H](COc3ccc(NS(=O)(=O)c4cnn(-c5ccc(Cl)cc5)c4)c(C(=O)O)c3)C2)cc1C(=O)O` [Compound 91] is 0.0173 µM (≈ 0.015 µg/mL).
Same read-out and setting: the figure for `CC1(Oc2ccc(NS(=O)(=O)N3CCOC(c4ccc(Cl)cc4)C3)c(C(=O)O)c2)CN(Cc2ccc(NS(=O)(=O)N3CCOC(c4ccc(Cl)cc4)C3)c(C(=O)O)c2)C1` (centres unmarked) [Compound 46] is 0.391 µM (≈ 0.348 µg/mL); for `O=C(O)c1cc(OC2CN(Cc3ccc(NS(=O)(=O)c4cnn(-c5ccc(F)cc5)c4)c(S(=O)(=O)O)c3)C2)ccc1NS(=O)(=O)c1cnn(-c2ccc(F)cc2)c1` [Compound 3, 2-((1-(4-fluorophenyl)-1H-pyrazole)-4-sulfonamido)-5-((1-(4-((1-(4-fluorophenyl)-1H-pyrazole)-4-sulfonamido)-3-sulfobenzyl)azetidin-3-yl)oxy)benzoic acid] it is 0.277 µM (≈ 0.233 µg/mL).
Under “Acinetobacter baumannii, 20 h”, `O=C(O)c1cc(CN2CC(Oc3ccc(NS(=O)(=O)c4ccc(-c5ccc(Cl)cc5)cc4)c(C(=O)O)c3)C2)ccc1NS(=O)(=O)c1ccc(Oc2ccccc2)nc1` [Compound 105] returned an MIC of 0.0245 µM (≈ 0.0206 µg/mL).
As to `O=C(O)c1cc(CN2CC(Oc3ccc(NS(=O)(=O)c4ccc(-c5ccc(F)cc5)cc4)c(C(=O)O)c3)C2)ccc1NS(=O)(=O)CCc1ccc(Cl)cc1` [Compound 99, 5-((1-(3-carboxy-4-((2-(4-chlorophenyl)ethyl)sulfonamido)benzyl)azetidin-3-yl)oxy)-2-((4′-fluoro-[1, l′-biphenyl])-4-sulfonamido)benzoic acid], for the setting “Acinetobacter baumannii, 20 h”, the minimum inhibitory concentration (MIC) came out at 0.0245 µM (≈ 0.0195 µg/mL). This counts as double-digit nanomolar.
On to `O=C(CCCCCc1ccccc1)Nc1ccc(OC2CN(Cc3ccc(NS(=O)(=O)c4cnn(-c5ccc(Cl)cc5)c4)c(C(=O)O)c3)C2)cc1C(=O)O` [Compound 66], for which the minimal inhibitory concentration (MIC) (Acinetobacter baumannii, 20 h) was 0.0489 µM (≈ 0.0378 µg/mL).
On the same count and under the same terms, the figure for `O=C(O)c1cc(COC2CC(OCc3ccc(NS(=O)(=O)c4ccc(-c5ccc(Cl)cc5)cc4)c(C(=O)O)c3)C2)ccc1NS(=O)(=O)CCc1ccc(F)cc1` (centres unmarked) [Compound 18] is 0.0122 µM (≈ 0.01 µg/mL).
The compound `O=C(O)c1cc(OC2CN(Cc3ccc(NS(=O)(=O)c4ccc(-c5ccc(F)cc5)cc4)c(C(=O)O)c3)C2)ccc1NS(=O)(=O)CCc1ccc(F)cc1` [Compound 83] came in with a minimum inhibitory concentration (MIC) (Acinetobacter baumannii, 20 h) of 0.0346 µM (≈ 0.0269 µg/mL).
As to `O=C(O)c1cc(CNC2CC(CNc3ccc(NS(=O)(=O)c4cnn(-c5ccc(F)cc5)c4)c(C(=O)O)c3)C2)ccc1NS(=O)(=O)CCc1ccc(Cl)cc1` (centres unmarked) [Compound 27], the minimum inhibitory concentration (MIC) (Acinetobacter baumannii, 20 h) was 0.391 µM (≈ 0.317 µg/mL).
On to `O=C(O)c1cc(CN2CC(Oc3ccc(NS(=O)(=O)N4CC(Oc5ccc(F)cc5)C4)c(C(=O)O)c3)C2)ccc1NS(=O)(=O)N1CC(Oc2ccc(F)cc2)C1` [Compound 80, 5-((1-(3-carboxy-4-((3-(4-fluorophenoxy)azetidine)-1-sulfonamido)benzyl)azetidin-3-yl)oxy)-2-((3-(4-fluorophenoxy)azetidine)-1-sulfonamido)benzoic acid], for which the minimal inhibitory concentration (MIC) (Acinetobacter baumannii, 20 h) turned out to be 0.0122 µM (≈ 0.00995 µg/mL).
For the compound `O=C(O)c1cc(CN2CC(Oc3ccc(NS(=O)(=O)c4ccc(-c5ccc(Cl)cc5)cc4)c(C(=O)O)c3)C2)ccc1NS(=O)(=O)c1ccc(-c2ccc(Cl)cc2)cc1` [Compound 97, 5-((1-(3-carboxy-4-((4′-chloro-(1,l′-biphenyl))-4-sulfonamido)benzyl)azetidin-3-yl)oxy)-2-((4′-chloro-(1,l′-biphenyl))-4-sulfonamido)benzoic acid], the MIC (Acinetobacter baumannii, 20 h) stood at 0.0978 µM (≈ 0.084 µg/mL).
As to `O=C(O)c1cc(CNC23CCC(NCc4ccc(NS(=O)(=O)c5cnn(-c6ccc(Cl)cc6)c5)c(C(=O)O)c4)(C2)C3)ccc1NS(=O)(=O)c1cnn(-c2ccc(Cl)cc2)c1` [Compound 50], the MIC (Acinetobacter baumannii, 20 h) came to 0.391 µM (≈ 0.349 µg/mL). Compared with the last compound, the MIC is about 4-fold higher.
The same measure, in the same setting: the figure for `O=C(O)c1cc(COC2CC(OCc3ccc(NS(=O)(=O)c4ccc(-c5ccc(F)cc5)cc4)c(C(=O)O)c3)C2)ccc1NS(=O)(=O)CCc1ccc(Cl)cc1` (centres unmarked) [Compound 16] is less than 0.0488 µM; for `O=C(O)c1cc(OC2CN(Cc3ccc(NS(=O)(=O)c4cnn(-c5ccc(F)cc5)c4)c(-c4nn[nH]n4)c3)C2)ccc1NS(=O)(=O)c1cnn(-c2ccc(F)cc2)c1` [Compound 114, 2-((1-(4-fluorophenyl)-1H-pyrazole)-4-sulfonamido)-5-((1-(4-((1-(4-fluorophenyl)-1H-pyrazole)-4-sulfonamido)-3-(2H-tetrazol-5-yl)benzyl)azetidin-3-yl)oxy)benzoic acid] it is 0.246 µM (≈ 0.204 µg/mL).
